Data: US9061028B2, “Process for the preparation of Nilotinib” (Natco Pharma Limited, priority 2012, dated 2015)
Structures can show the parent of a compound that is named as a salt.

Columns and labels:
[1] = Polymorph stability under accelerated stress conditions (40±2° C., 75±5% RH), by XRD; assay type: physicochemical; conditions: accelerated high humidity stress conditions
[2] = Thermal stability of polymorph form on heating at 60-70° C., examined by XRPD; assay type: physicochemical; conditions: for Polymorph form detected after heating: oil bath 60-70° C., XRPD

Hygroscopicity (40° C./75% RH): non-hygroscopic
Final moisture content after 60 days 40° C. at humidity of 75% (60 days, 40° C./75% RH, karl-fischer): 5.2%
Initial moisture Content (%) (before storage, karl-fischer): 5.26%
XRD spectra after storage [1]: essentially the same and unchanged
Stability to heat ([2]; 70° C./40 hours): stable to heat
Polymorph form detected after heating ([2]; time of heating 10 hours): XRD pattern unchanged
Polymorph form detected after heating ([2]; time of heating 20 hours): XRD pattern unchanged
Polymorph form detected after heating ([2]; time of heating 30 hours): XRD pattern unchanged
Polymorph form detected after heating ([2]; time of heating 40 hours): XRD pattern unchanged
Structure (SMILES): Cc1cn(-c2cc(NC(=O)c3ccc(C)c(Nc4nccc(-c5cccnc5)n4)c3)cc(C(F)(F)F)c2)cn1 [Nilotinib hydrochloride]
